In ChEMBL document CHEMBL5325488, “Discovery of SMD-3040 as a Potent and Selective SMARCA2 PROTAC Degrader with Strong in vivo Antitumor Activity” (J Med Chem, 2023):

Tests used:
[1] = target: T1, von Hippel-Lindau disease tumor suppressor/SWI/SNF-related matrix-associated actin-dependent regulator of chromatin subfamily A member 2 (Homo sapiens, UniProt P51531+P40337); test: PROTAC activity at VHL/C-terminal HiBiT fused SMARCA2 in human HeLa cells assessed as induction of SMARCA2 degradation incubated for 6 hrs by Nano-Glo HiBiT analysis; type: cell-based
Target sequence in this assay (P51531 whole entry, the tested form may be a part): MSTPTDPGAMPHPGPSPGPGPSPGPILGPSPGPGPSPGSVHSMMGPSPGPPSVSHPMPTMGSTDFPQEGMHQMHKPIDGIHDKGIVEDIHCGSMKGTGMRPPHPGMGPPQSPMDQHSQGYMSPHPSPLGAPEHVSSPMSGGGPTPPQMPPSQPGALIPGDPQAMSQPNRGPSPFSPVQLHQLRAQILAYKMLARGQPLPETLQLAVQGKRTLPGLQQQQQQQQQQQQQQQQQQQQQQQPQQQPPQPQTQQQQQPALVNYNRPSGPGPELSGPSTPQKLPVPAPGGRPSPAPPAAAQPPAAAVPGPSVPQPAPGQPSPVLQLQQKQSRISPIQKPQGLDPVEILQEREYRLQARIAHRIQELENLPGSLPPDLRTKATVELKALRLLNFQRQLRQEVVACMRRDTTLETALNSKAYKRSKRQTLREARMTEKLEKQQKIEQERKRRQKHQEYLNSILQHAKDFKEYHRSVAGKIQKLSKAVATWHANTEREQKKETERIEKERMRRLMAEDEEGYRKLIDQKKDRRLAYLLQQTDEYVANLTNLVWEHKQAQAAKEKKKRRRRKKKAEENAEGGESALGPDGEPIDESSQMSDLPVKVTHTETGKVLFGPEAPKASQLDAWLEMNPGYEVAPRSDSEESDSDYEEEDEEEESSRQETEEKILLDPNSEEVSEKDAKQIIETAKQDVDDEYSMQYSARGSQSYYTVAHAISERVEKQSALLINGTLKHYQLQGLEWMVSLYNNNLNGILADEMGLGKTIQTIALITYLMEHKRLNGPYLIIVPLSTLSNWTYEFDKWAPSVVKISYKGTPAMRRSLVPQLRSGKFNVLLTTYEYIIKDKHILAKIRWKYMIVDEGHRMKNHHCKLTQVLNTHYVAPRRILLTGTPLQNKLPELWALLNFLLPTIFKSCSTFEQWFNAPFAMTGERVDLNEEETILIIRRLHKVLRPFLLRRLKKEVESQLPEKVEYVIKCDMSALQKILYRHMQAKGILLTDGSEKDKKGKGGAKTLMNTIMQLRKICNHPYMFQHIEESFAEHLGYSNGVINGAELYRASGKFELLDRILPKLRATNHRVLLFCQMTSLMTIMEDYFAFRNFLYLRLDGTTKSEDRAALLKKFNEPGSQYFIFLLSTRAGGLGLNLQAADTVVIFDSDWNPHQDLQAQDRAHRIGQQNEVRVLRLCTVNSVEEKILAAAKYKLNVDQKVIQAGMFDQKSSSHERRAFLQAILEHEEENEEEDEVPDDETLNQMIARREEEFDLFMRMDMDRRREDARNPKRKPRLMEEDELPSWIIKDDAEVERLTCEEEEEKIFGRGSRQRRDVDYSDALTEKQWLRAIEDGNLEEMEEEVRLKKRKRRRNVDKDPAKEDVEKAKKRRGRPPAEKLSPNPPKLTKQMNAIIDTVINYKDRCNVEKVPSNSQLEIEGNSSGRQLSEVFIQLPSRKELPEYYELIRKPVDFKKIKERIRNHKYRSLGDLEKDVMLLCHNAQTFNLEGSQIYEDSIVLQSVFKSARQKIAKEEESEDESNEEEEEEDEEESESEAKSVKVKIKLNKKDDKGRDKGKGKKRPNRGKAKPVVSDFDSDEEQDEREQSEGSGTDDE
Target sequence in this assay (P40337 whole entry, the tested form may be a part): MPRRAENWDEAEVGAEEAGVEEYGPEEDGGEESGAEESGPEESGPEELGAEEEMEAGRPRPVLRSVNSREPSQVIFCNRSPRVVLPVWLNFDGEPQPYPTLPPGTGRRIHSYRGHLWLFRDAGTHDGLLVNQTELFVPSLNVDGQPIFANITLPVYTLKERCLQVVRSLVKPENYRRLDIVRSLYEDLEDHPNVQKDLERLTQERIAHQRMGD

[2] = target: T1, von Hippel-Lindau disease tumor suppressor/SWI/SNF-related matrix-associated actin-dependent regulator of chromatin subfamily A member 2; test: PROTAC activity at VHL/C-terminal HiBiT fused SMARCA2 in human HeLa cells assessed as induction of SMARCA2 degradation incubated for 48 hrs by Nano-Glo HiBiT analysis; type: cell-based
Target sequence in this assay (P51531 whole entry, the tested form may be a part): as the sequence (P51531 whole entry, the tested form may be a part) above
Target sequence in this assay (P40337 whole entry, the tested form may be a part): as the sequence (P40337 whole entry, the tested form may be a part) above

NCI-H1793 = test: Antiproliferative activity against SMARCA4-deficient human NCI-H1793 cells assessed as cell growth inhibition measured after 7 days by WST-8 assay; type: functional; conditions: NCI-H1793, 168 h, time 7 day
[3] = Antiproliferative activity against SMARCA4-deficient human NCI-H1568 cells assessed as cell growth inhibition measured after 7 days by WST-8 assay; type: functional; conditions: NCI-H1568, 168 h, time 7 day
[4] = target: T1, von Hippel-Lindau disease tumor suppressor/SWI/SNF-related matrix-associated actin-dependent regulator of chromatin subfamily A member 2; test: In vivo PROTAC activity at VHL/SMARCA2 in SCID mouse xenografted with human NCI-H838 cells assessed as remaining activity in tumor at 50 mg/kg, iv administered as single dose measured after 3 hrs by Western blotting analysis (reference value: 100 +/- 7% ); type: functional, organism-based
Target sequence in this assay (P40337 whole entry, looked up, the tested form may be a part): as the sequence (P40337 whole entry, the tested form may be a part) above
Target sequence in this assay (P51531 whole entry, looked up, the tested form may be a part): as the sequence (P51531 whole entry, the tested form may be a part) above

[5] = target: T1, von Hippel-Lindau disease tumor suppressor/SWI/SNF-related matrix-associated actin-dependent regulator of chromatin subfamily A member 2; test: In vivo PROTAC activity at VHL/SMARCA2 in SCID mouse xenografted with human NCI-H838 cells assessed as remaining activity in tumor at 50 mg/kg, iv administered as single dose measured after 96 hrs by Western blotting analysis (reference value: 100 +/- 7% ); type: functional, organism-based
Target sequence in this assay (P40337 whole entry, looked up, the tested form may be a part): as the sequence (P40337 whole entry, the tested form may be a part) above
Target sequence in this assay (P51531 whole entry, looked up, the tested form may be a part): as the sequence (P51531 whole entry, the tested form may be a part) above

[6] = Drug concentration in SCID mouse plasma xenografted with human MV4-11 cells at 50 mg/kg, iv measured after 24 hrs by LC-MS/MS method; type: ADME, organism-based
[7] = Drug concentration in SCID mouse tumor xenografted with human MV4-11 cells at 50 mg/kg, iv measured after 2 hrs by LC-MS/MS method; type: ADME, organism-based, Neoplasm; conditions: read-out: Ct

Question: For `Cc1ncsc1-c1ccc([C@H](C)NC(=O)[C@@H]2C[C@@H](O)CN2C(=O)[C@@H](NC(=O)[C@H]2CC[C@H](CN3CC4(CCC(n5cc(-c6cc(-c7ccccc7O)nnc6N)cn5)CC4)C3)CC2)C(C)(C)C)cc1`, which DC50 [1] is on record?
Answer: The DC50 was 44 nM.

Question: And the DC50 [2]?
Answer: Its DC50 is 11 nM.

Question: What about the GI50 (NCI-H1793) of the same compound?
Answer: Its GI50 is 21 nM.

Question: What about the GI50 [3] of the same compound?
Answer: The GI50 was 8.8 nM.

Question: What about the Activity [4] of the same compound?
Answer: Its Activity is 30%.

Question: What about the Activity [5] of the same compound?
Answer: The Activity was 33%.

Question: What about the concentration at 24 h [6] of the same compound?
Answer: The concentration at 24 h was 218 ng/mL.

Question: What about the concentration at 2 h [7] of the same compound?
Answer: Its concentration at 2 h is 3420 ng/g.
